# Several values for one entry are separate records, joined by “and”; a condition that tells them apart may be missing. Identical values can stand only once. Counter-ions that a name gives are not always drawn. Like-named read-outs stand apart in the source and are kept apart here.
# Assays:
# P. aeruginosa PAO1 = experiment: MIC by two-fold dilution, wild type PAO1; type: cell-based, Pseudomonas aeruginosa; conditions: Pseudomonas aeruginosa
# Protocol: (§1) In all experiments, P. aeruginosa PAO1-Pore (PAO1 attTn7::PLAC-fhuA) and PΔ3-Pore (ΔmexAB ΔmexCD ΔmexXY attTn7::PLAC-fhuA) strains were used[29]. Strains were routinely grown in Luria–Bertani (LB) or MOPS-M9 medium at 37 °C with aeration. MICs shown in Tables 1 and 2 were determined by a two-fold dilution method in LB broth and MOPS-M9 medium, respectively, following the previously described protocol.
# P. aeruginosa PAO1-Pore = experiment: MIC by two-fold dilution, hyperporinated PAO1-Pore; type: cell-based, Pseudomonas aeruginosa; conditions: for MICs: PAO1-Pore, LB broth, Table S2; for MIC: Pseudomonas aeruginosa, PAO1, read-out: MICs
# Protocol: as §1
# P. aeruginosa PΔ3 = experiment: microbe, parasite or virus in culture; type: cell-based, Pseudomonas aeruginosa; conditions: Pseudomonas aeruginosa, read-out: MICs
# Protocol: as §1
# P. aeruginosa PΔ3-Pore = experiment: MIC by two-fold dilution, barrierless PΔ3-Pore; type: cell-based, Pseudomonas aeruginosa; conditions: for MIC: Pseudomonas aeruginosa, read-out: MICs, P∆3-Pore, MOPS-M9 medium; for MICs: P∆3-Pore, LB broth, Table S2
# Protocol: as §1
# P. aeruginosa PAO1 cells = experiment: LC–MS quantification of intracellular accumulation, PAO1; conditions: 10-80 µM; for Concentration slopes of accumulation, PAO1_1 min: 1 min incubation; for Concentration slopes of accumulation, PAO1_40 min: 40 min incubation;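 on all read-outs here: slope of accumulation versus external concentration fitted as a line through zero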
# Protocol: (§2) PAO1-Pore and PΔ3-Pore were grown at 37 °C overnight with shaking at 225 rpm in 50 mM MOPS-M9 (pH 7.2) Minimal Medium supplemented with 1% glycerol[42],[43].
# (§3) The next day, cells were sub-cultured (1.5:100) in fresh MOPS-M9 medium and grown for 16 h. The cultures were then split into two flasks and one of them was induced with 0.1 mM IPTG. Cells incubated for additional 4 h until OD600 reached ~ 1.0 and harvested by centrifugation at 3,275xg for 20 min in RT, washed and concentrated 10X in the spent medium. Assays were performed in 96-well plates in a final volume of […]. Cells were incubated with 10, 20, 40, 80 µM of compounds and after 1- and 40-min incubation at RT, 100 µL cell aliquots were collected by vacuum filtration onto 1.0 µm Glass Fiber Type B filters. For no-cell controls, compounds were diluted to 10, 20, 40, 80 µM final concentration in the same medium, incubated for 1 min and 40 min and filtered onto the same plates. The cell loaded and cell-free filters were dried, removed from plates and placed into 100% methanol at -80 °C for at least 10 min. Filter-bound material was extracted by water bath sonication for 1 min. Cell and filter debris were separated by ultracentrifugation at 45,000 rpm (TLA55 rotor, Beckman) for 8 min at 16 °C and the pellet re-extracted with 80% methanol in water by sonication for 15 min followed by ultracentrifugation at the same conditions. Supernatants from two extractions were combined. For the compound quantification, 5 µL of solution was analyzed in triplicate.
# (§4) Calibration curves for MS analyses of compounds were generated in the same experiment by mixing compound at increasing concentrations with the sonicated PAO1 cell extracts. […] Azithromycin was used as a positive control in all experiments.
# (§5) Samples were processed in positive ion mode. An Eclipse plus C18 Rapid Resolution HD column (1.8 μm, 2.1 × 50 mm, Agilent, USA) was used for separation. The flow rate was 0.6 mL/min using the following gradient: 0 to 1 min (0- 20% ACN), 1 to 4 min (20- 80% ACN), 4 to 5.1 min (80–100% ACN), 5.1 to 6.30 (100% ACN). Solvents contained 0.1% formic acid to promote positive ion formation in the electrospray. […] Data were analyzed using Agilent Masshunter workstation quantitative analysis v. B.10 software.
# [1] = system: P. aeruginosa PAO1-Pore cells; experiment: LC–MS quantification of intracellular accumulation, PAO1-Pore; conditions: 10-80 µM; for Concentration slopes of accumulation, PAO1-Pore_1 min: 1 min incubation; for Concentration slopes of accumulation, PAO1-Pore_40 min: 40 min incubation;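 on all read-outs here: slope of accumulation versus external concentration fitted as a line through zero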
# Protocol: as §2, §3, §4, §5
# P. aeruginosa PΔ3 cells = conditions: 10-80 µM; for Concentration slopes of accumulation, PΔ3_1 min: 1 min incubation; for Concentration slopes of accumulation, PΔ3_40 min: 40 min incubation;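 on all read-outs here: slope of accumulation versus external concentration fitted as a line through zero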
# Protocol: as §2, §3, §4, §5
# [2] = system: P. aeruginosa PΔ3-Pore cells; experiment: LC–MS quantification of intracellular accumulation, PΔ3-Pore; conditions: 10-80 µM; for Concentration slopes of accumulation, PΔ3-Pore_1 min: 1 min incubation; for Concentration slopes of accumulation, PΔ3-Pore_40min: 40 min incubation;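 on all read-outs here: slope of accumulation versus external concentration fitted as a line through zero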
# Protocol: as §2, §3, §4, §5
# [3] = PAO1, MOPS-M9 medium, read-out: MICs
SMILES,MIC (P. aeruginosa PAO1; [3]),MICs (P. aeruginosa PAO1-Pore),MIC (P. aeruginosa PAO1-Pore),MIC (P. aeruginosa PΔ3),MIC (P. aeruginosa PΔ3-Pore),MICs (P. aeruginosa PΔ3-Pore),"Concentration slopes of accumulation, PAO1_1 min (P. aeruginosa PAO1 cells)","Concentration slopes of accumulation, PAO1_40 min (P. aeruginosa PAO1 cells)","Concentration slopes of accumulation, PAO1-Pore_1 min [1]","Concentration slopes of accumulation, PAO1-Pore_40 min [1]","Concentration slopes of accumulation, PΔ3_1 min (P. aeruginosa PΔ3 cells)","Concentration slopes of accumulation, PΔ3_40 min (P. aeruginosa PΔ3 cells)","Concentration slopes of accumulation, PΔ3-Pore_1 min [2]","Concentration slopes of accumulation, PΔ3-Pore_40min [2]","MIC (P. aeruginosa PAO1; PAO1, read-out: MICs)"
"CCN1CCN(c2cc3c(cc2F)c(=O)c(C(=O)O)cn3C2CC2)CC1 [OU-0000620, ENROFLOXACIN]",2 µM and 0.7 µg/mL,0.25,0.0625 µM and 0.02 µg/mL,0.5 µM and 0.18 µg/mL,0.016 µM and 0.01 µg/mL,0.0039,18.49,16.52,26.71,27.91,14.05,13.99,26.71,29.82,–
COc1cc(NS(=O)(=O)c2ccc(N)cc2)nc(OC)n1 [Sulfadimethoxine],–,–,25 µM and 7.8 µg/mL,200 µM and 62.1 µg/mL,1.6 µM and 0.5 µg/mL,–,–,–,–,–,–,–,–,–,> 200 µM and 62.1 µg/mL
"CC1CCc2c(N3CCC(O)CC3)c(F)cc3c(=O)c(C(=O)O)cn1c23 (stereo not drawn) [OU-0000628, nadifloxacin]",5 µM and 1.8 µg/mL,0.39,0.0625 µM and 0.02 µg/mL,0.625 µM and 0.23 µg/mL,0.0156 µM and 0.01 µg/mL,0.0015,6.36,6.93,11.41,12.74,9.00,9.79,19.74,19.09,–
"CCn1cc(C(=O)O)c(=O)c2cc3c(cc21)OCO3 [OU-0000621, OXOLINIC ACID]",20 µM and 5.2 µg/mL,6.25,0.625 µM and 0.16 µg/mL,2.5 µM and 0.65 µg/mL,0.078 µM and 0.02 µg/mL,0.097,5.93,6.11,8.17,6.63,5.83,6.58,8.75,6.70,–
Cc1noc(NS(=O)(=O)c2ccc(N)cc2)c1C [Sulfisoxazole],> 200 µM and > 53.7 µg/mL,–,> 200 µM,> 200 µM,> 200 µM,–,–,–,–,–,–,–,–,–,–
Nc1ccc(S(=O)(=O)Nc2ccnn2-c2ccccc2)cc1 [Sulfaphenazole],> 200 µM and > 62.9 µg/mL,–,12.5 µM and 3.9 µg/mL,200 µM and 62.9 µg/mL,3.2 µM and 1 µg/mL,–,–,–,–,–,–,–,–,–,–
COc1cnc(NS(=O)(=O)c2ccc(N)cc2)nc1 [OU-0000694],–,–,12.5 µM and 3.5 µg/mL,25 µM and 7 µg/mL,6.25 µM and 1.75 µg/mL,–,2.18,1.74,3.10,2.35,0.87,1.82,3.61,3.14,> 200 µM and > 56.1 µg/mL
Nc1ccc(S(=O)(=O)Nc2nccs2)cc1 [Sulfathiazole],50 µM and 12.8 µg/mL,–,3.2 µM and 0.8 µg/mL,6.25 µM and 1.6 µg/mL,1.6 µM and 0.4 µg/mL,–,–,–,–,–,–,–,–,–,–
"C[C@H]1COc2c(N3CCN(C)CC3)c(F)cc3c(=O)c(C(=O)O)cn1c23 [OU-0000806, Levofloxacin]",0.5 µM and 0.18 µg/mL,0.25,0.031 µM and 0.011 µg/mL,0.25 µM and 0.2 µg/mL,0.008 µM and 0.003 µg/mL,0.0039,3.66,5.59,6.98,7.94,2.43,5.63,3.52,5.77,–
"CN1CCN(c2cc3c(cc2F)c(=O)c(C(=O)O)cn3-c2ccc(F)cc2)CC1 [OU-0000624, DIFLOXACIN]",2.5 µM and 1.1 µg/mL,0.39,0.0625 µM and 0.03 µg/mL,0.313 µM and 0.14 µg/mL,0.0313 µM and 0.01 µg/mL,0.097,3.78,6.48,8.04,11.39,4.42,5.02,6.73,8.21,–
"COc1c(N2C[C@@H]3CCCN[C@@H]3C2)c(F)cc2c(=O)c(C(=O)O)cn(C3CC3)c12 [OU-0000626, MOXIFLOXACIN HYDROCHLORIDE]",2.5 µM and 1.1 µg/mL,0.39,0.03 µg/mL,0.27 µg/mL,0.0313 µM and 0.01 µg/mL,0.024,1.19,2.06,3.02,7.25,1.39,2.61,2.26,4.78,–
"CCn1cc(C(=O)O)c(=O)c2cc(F)c(N3CCN(C)CC3)cc21 [OU-0000619, PEFLOXACINE MESYLATE]",2 µM and 0.9 µg/mL,0.25,0.25 µM and 0.11 µg/mL,–,0.03 µg/mL,0.0039,14.50,14.54,25.74,33.41,21.54,34.80,32.20,39.09,–
"COc1cccc2c1C(=O)c1c(O)c3c(c(O)c1C2=O)C[C@@](O)(C(=O)CO)C[C@@H]3O[C@H]1C[C@H](N)[C@H](O)[C@H](C)O1 [OU-0000835, Doxorubicin]",200 µM and 109 µg/mL,100,12.5 µM and 6.8 µg/mL,25 µM and 13.6 µg/mL,3.2 µM and 1.7 µg/mL,25,1.38,0.84,3.78,–,1.32,1.10,1.89,2.13,–

# Source: PMC9114115, “Property space mapping of Pseudomonas aeruginosa permeability to small molecules” (Scientific Reports, 2022)
